How the values were obtained:
keratinocytes = conditions: cited from earlier work
[1] = system: SCID-mouse-human skin model of psoriasis; conditions: cited from earlier work
psoriasis = experiment: Case report: patient with severe psoriasis treated with oral lestaurtinib; type: in vivo, human; conditions: person, severe psoriasis in the ankle region; oral solution 60 mg bid, 80 mg bid after 29 days; observed on day 60
Experimental: A patient with a history of renal and prostate cancer, arthritic pain and chronic bronchitis presented with severe psoriasis in the ankle region. The patient started treatment with lestaurtinib at a dosage of 60 mg bid. Lestaurtinib was administered twice daily as an oral solution at a concentration of 25 mg/mL in polysorbate 80 NF (10 mL) and propylene glycol USP (10 mL), diluted in juice. The following juices are approved for use to administer lestaurtinib: grape, pineapple, apple, V8® 100% vegetable juice, and orange juice (pulp free). After 29 days from initiation, the dosage was increased to 80 mg bid.

Row | SMILES | block of autocrine NGF loop and keratinocyte apoptosis (keratinocytes) | improvement in the skin condition [1] | remission of psoriasis (psoriasis)
1 | COC(=O)[C@@]1(O)C[C@H]2O[C@]1(C)n1c3ccccc3c3c4c(c5c6ccccc6n2c5c31)C(=O)NC4 [Compound K-252a, K-252a] | can block an autocrine NGF loop and result in keratinocyte apoptosis | noticeable improvement in the skin condition | 
2 | C[C@]12O[C@H](C[C@]1(O)CO)n1c3ccccc3c3c4c(c5c6ccccc6n2c5c31)CNC4=O [lestaurtinib] |  |  | relative remission of psoriasis

— US20060058250A1, “Methods of treating proliferative skin diseases using carbazole derivatives” (Cephalon, Inc., priority 2004, published 2006)
